These results are taken from ChEMBL document CHEMBL1136754, “Mechanism of action of the diazabicyclononanone-type kappa-agonists” (J Med Chem, 2003).

Common to all, as to format: tissue-based
For experiment [1], the target named is Delta-type opioid receptor (Rattus norvegicus, UniProt P33533). The experiment in a line: Binding affinity towards Opioid receptor delta 1 using [3H]CI-DPDPE as radioligand in rat brain.
For experiment [2], the target named is Kappa-type opioid receptor (Rattus norvegicus, UniProt P34975). In words: Binding affinity towards KOR (Opioid receptor kappa 1) using [3H]CI977 as radioligand in rat brain.
Chain of Kappa-type opioid receptor (P34975 whole entry): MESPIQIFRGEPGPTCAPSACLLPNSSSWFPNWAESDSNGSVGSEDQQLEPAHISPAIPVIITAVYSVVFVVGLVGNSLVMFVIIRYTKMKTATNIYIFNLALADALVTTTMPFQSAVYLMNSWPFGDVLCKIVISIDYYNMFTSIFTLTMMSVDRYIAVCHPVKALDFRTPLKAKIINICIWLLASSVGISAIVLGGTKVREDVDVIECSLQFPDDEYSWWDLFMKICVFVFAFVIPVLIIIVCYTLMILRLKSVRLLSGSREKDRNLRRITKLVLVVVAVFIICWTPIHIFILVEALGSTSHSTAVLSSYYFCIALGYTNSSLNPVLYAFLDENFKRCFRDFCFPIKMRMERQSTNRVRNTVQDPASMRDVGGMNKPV
For a further experiment, the target named is Mu-type opioid receptor (Rattus norvegicus, UniProt P33535). The experiment in a line: Binding affinity towards Opioid receptor mu 1 using [3H]naloxone as radioligand in rat brain.
Chain of Mu-type opioid receptor (P33535 whole entry): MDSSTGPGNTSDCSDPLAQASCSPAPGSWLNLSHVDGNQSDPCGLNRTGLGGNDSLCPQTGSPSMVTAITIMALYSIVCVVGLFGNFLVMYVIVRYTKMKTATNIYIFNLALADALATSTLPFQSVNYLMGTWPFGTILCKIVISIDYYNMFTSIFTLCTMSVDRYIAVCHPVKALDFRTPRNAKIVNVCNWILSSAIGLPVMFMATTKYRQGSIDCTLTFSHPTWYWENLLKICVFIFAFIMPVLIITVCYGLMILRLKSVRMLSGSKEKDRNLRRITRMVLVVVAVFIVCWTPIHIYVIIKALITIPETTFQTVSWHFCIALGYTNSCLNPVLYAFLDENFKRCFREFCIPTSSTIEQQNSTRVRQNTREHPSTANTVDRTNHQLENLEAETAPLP

In general, Ki refers to a dissociation constant, usually derived from enzyme kinetics or from competition with a known ligand. A lower Ki goes with a stronger hold on the target.

Chain of Delta-type opioid receptor (P33533 whole entry): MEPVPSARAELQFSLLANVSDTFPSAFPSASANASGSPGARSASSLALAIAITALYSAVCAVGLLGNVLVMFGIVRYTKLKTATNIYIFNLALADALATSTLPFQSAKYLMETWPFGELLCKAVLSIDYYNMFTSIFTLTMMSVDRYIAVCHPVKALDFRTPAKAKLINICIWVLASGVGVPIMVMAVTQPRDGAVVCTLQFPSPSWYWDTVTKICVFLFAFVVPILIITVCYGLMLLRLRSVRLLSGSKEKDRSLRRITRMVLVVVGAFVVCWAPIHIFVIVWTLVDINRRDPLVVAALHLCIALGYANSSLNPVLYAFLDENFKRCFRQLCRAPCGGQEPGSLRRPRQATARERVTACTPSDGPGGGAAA

With `CN1CC2C(=O)C(C1)C(c1ccccn1)N(C)C2c1ccccn1` (stereo not drawn), the figures for the Ki (in experiment [1]; in experiment [2]; at Mu-type opioid receptor) were greater than 10 µM, 0.015 µM and greater than 1 µM, respectively.
